According to BindingDB's records for doi:10.1007/pl00005288 (King'S College London, 1998):

What was measured:
[1] = target: T1, Melatonin receptor type 1B (Homo sapiens, UniProt P49286)
T1 sequence (P49286 whole entry): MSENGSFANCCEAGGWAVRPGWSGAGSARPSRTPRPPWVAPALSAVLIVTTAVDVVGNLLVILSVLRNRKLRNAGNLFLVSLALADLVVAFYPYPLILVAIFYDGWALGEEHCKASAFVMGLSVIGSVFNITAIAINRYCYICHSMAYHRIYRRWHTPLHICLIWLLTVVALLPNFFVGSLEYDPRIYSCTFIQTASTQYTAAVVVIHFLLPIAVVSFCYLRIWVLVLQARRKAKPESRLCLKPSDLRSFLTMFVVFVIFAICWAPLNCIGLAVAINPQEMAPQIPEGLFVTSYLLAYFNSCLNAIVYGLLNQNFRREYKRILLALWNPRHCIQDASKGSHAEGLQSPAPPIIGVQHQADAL

[2] = target: T2, Melatonin receptor type 1C (Xenopus laevis, UniProt P49219)
T2 sequence (P49219 whole entry): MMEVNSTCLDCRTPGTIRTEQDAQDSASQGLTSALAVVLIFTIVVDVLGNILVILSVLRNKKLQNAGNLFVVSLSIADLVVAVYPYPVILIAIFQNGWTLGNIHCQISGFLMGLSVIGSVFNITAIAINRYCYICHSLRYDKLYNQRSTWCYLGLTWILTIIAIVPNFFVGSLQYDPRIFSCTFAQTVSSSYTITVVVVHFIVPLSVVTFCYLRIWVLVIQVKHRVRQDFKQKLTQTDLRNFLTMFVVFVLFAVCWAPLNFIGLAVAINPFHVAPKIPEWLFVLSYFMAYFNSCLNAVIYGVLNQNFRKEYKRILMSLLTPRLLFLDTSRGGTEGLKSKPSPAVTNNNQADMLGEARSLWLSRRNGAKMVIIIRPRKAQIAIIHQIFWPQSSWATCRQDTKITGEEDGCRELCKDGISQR

[3] = target: T3, Melatonin receptor type 1B (Gallus gallus, UniProt P51050)
T3 sequence (P51050 whole entry): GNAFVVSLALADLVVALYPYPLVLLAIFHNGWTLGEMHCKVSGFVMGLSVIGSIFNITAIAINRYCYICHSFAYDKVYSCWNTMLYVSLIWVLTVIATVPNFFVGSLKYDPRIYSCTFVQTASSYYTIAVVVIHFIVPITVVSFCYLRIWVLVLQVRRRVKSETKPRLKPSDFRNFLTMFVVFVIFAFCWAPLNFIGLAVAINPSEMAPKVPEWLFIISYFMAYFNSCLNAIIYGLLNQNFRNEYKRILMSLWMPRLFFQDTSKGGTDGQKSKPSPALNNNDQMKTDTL

[4] = target: Melatonin receptor type 1A (Homo sapiens, UniProt P48039)
Chain of Melatonin receptor type 1A (P48039 whole entry): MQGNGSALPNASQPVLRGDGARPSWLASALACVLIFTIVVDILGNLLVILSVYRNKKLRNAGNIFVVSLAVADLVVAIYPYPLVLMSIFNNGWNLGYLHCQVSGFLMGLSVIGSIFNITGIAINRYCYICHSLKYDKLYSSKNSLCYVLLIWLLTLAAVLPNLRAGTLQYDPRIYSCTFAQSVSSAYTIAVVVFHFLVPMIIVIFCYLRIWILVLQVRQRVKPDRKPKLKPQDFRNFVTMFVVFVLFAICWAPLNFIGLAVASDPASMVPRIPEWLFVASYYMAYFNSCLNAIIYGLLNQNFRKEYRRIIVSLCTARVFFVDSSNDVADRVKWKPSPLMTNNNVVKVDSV

## CC(=O)NCCc1c(Cc2ccccc2)[nH]c2ccccc12 [CAS_117946-91-5]
[1]
  Ki: 26.9 nM
[2]
  Ki: 2040 nM
[3]
  Ki: 1740 nM
[4]
  Ki: 513 nM

## CCCCCC(=O)NCCc1c(Cc2ccccc2)[nH]c2ccc(OC)cc12 [Luzindole,5-MeOT-N-hexanyl]
[1]
  Ki: 324 nM
[2]
  Ki: 1380 nM
[3]
  Ki: 776 nM
[4]
  Ki: 339 nM

## CCCC(=O)NCCc1c(Cc2ccccc2)[nH]c2ccccc12 [Luzindole,N-butanoyl]
[1]
  Ki: 1320 nM
[2]
  Ki: 3800 nM
[3]
  Ki: > 10000 nM
[4]
  Ki: 3020 nM

## CCCCCC(=O)NCCc1c(Cc2ccccc2)[nH]c2ccccc12 [Luzindole,N-hexanoyl]
[1]
  Ki: 7080 nM
[2]
  Ki: 5750 nM
[3]
  Ki: 6460 nM
[4]
  Ki: 5500 nM

## CCCCC(=O)NCCc1c(Cc2ccccc2)[nH]c2ccccc12 [Luzindole,N-pentanoyl]
[1]
  Ki: 9.33 nM
[2]
  Ki: 2140 nM
[3]
  Ki: 933 nM
[4]
  Ki: 832 nM

## CCC(=O)NCCc1c(Cc2ccccc2)[nH]c2ccccc12 [Luzindole,N-propanoyl]
[1]
  Ki: 22.9 nM
[2]
  Ki: 3160 nM
[3]
  Ki: 1950 nM
[4]
  Ki: 776 nM
